Assay results reported in patent publication US20180256673A1, “METHODS FOR TREATING FUNGAL INFECTIONS” (priority 2015, published 2018).

Assays:
[1] = test system: azole-resistant Candida albicans R357 strain; assay: microbe, parasite or virus in culture; format: cell-based; conditions: for MIC: Candida albicans
[2] = test system: C. albicans ATCC 44858, DPL001, R357; assay: Time-kill assay in vagina-simulative medium pH 4.0 (Table 16); format: cell-based, Candida albicans; conditions: ATCC 44858 (FLU S)
[3] = test system: C. glabrata CG01, ATCC 200918, MMX 7070; assay: Time-kill assay in vagina-simulative medium pH 4.0 (Table 17); format: cell-based, Candida glabrata; conditions: C. glabrata CG01 (FLU S), VSM pH 4.0
[4] = test system: C. tropicalis CTO2, MMX 7255, MMX 7525; assay: Time-kill assay in vagina-simulative medium pH 4.0 (Table 18); format: cell-based, Candida tropicalis; conditions: C. tropicalis CT02 (FLU S), VSM pH 4.0
[5] = test system: C. parapsilosis CP02, CP01, MMX 7370; assay: Time-kill assay in vagina-simulative medium pH 4.0 (Table 19); format: cell-based, Candida parapsilosis; conditions: C. parapsilosis CP02 (FLU S), VSM pH 4.0

CC[C@@H]([C@H](C)O)n1ncn(-c2ccc(N3CCN(c4ccc(OC[C@@H]5CO[C@@](Cn6cncn6)(c6ccc(F)cc6F)C5)cc4)CC3)cc2)c1=O [Posaconazole]
MIC [1]: > 64 µg/mL

CC(C)N1CCN(c2ccc(OCC3COC(Cn4cncn4)(c4ccc(Cl)cc4Cl)O3)cc2)CC1 (stereo not drawn) [TCZ, terconazole]
log-fold change in CFU ([2]; 24 h, 2 μg/mL): 0.33 log-fold
log-fold change in CFU ([2]; 24 h, 8 μg/mL): 0.33 log-fold
log-fold change in CFU ([2]; 24 h, 32 μg/mL): −1.16 log-fold
log-fold change in CFU ([2]; 24 h, 128 μg/mL): −1.41 log-fold
log-fold change in CFU ([2]; 48 h, 2 μg/mL): 2.00 log-fold
log-fold change in CFU ([2]; 48 h, 8 μg/mL): 1.38 log-fold
log-fold change in CFU ([2]; 48 h, 32 μg/mL): −1.07 log-fold
log-fold change in CFU ([2]; 48 h, 128 μg/mL): −1.64 log-fold
log-fold change in CFU ([2]; 72 h, 2 μg/mL): 2.52 log-fold
log-fold change in CFU ([2]; 72 h, 8 μg/mL): 2.27 log-fold
log-fold change in CFU ([2]; 72 h, 32 μg/mL): −0.41 log-fold
log-fold change in CFU ([2]; 72 h, 128 μg/mL): −0.81 log-fold
log-fold changes in CFU ([3]; 24 h, 2 μg/mL): 2.43 log-fold
log-fold changes in CFU ([3]; 24 h, 8 μg/mL): 2.43 log-fold
log-fold changes in CFU ([3]; 24 h, 32 μg/mL): 2.40 log-fold
log-fold changes in CFU ([3]; 24 h, 128 μg/mL): 1.79 log-fold
log-fold changes in CFU ([3]; 48 h, 2 μg/mL): 2.42 log-fold
log-fold changes in CFU ([3]; 48 h, 8 μg/mL): 2.45 log-fold
log-fold changes in CFU ([3]; 48 h, 32 μg/mL): 2.36 log-fold
log-fold changes in CFU ([3]; 48 h, 128 μg/mL): 2.35 log-fold
log-fold changes in CFU ([3]; 72 h, 2 μg/mL): 2.47 log-fold
log-fold changes in CFU ([3]; 72 h, 8 μg/mL): 2.19 log-fold
log-fold changes in CFU ([3]; 72 h, 32 μg/mL): 2.21 log-fold
log-fold changes in CFU ([3]; 72 h, 128 μg/mL): 2.30 log-fold
log-fold changes in CFU ([4]; 24 h, 2 μg/mL): 2.39 log-fold
log-fold changes in CFU ([4]; 24 h, 8 μg/mL): 2.33 log-fold
log-fold changes in CFU ([4]; 24 h, 32 μg/mL): 0.00 log-fold
log-fold changes in CFU ([4]; 24 h, 128 μg/mL): −1.00 log-fold
log-fold changes in CFU ([4]; 48 h, 2 μg/mL): 2.57 log-fold
log-fold changes in CFU ([4]; 48 h, 8 μg/mL): 2.33 log-fold
log-fold changes in CFU ([4]; 48 h, 32 μg/mL): 0.23 log-fold
log-fold changes in CFU ([4]; 48 h, 128 μg/mL): −1.00 log-fold
log-fold changes in CFU ([4]; 72 h, 2 μg/mL): 2.65 log-fold
log-fold changes in CFU ([4]; 72 h, 8 μg/mL): 2.52 log-fold
log-fold changes in CFU ([4]; 72 h, 32 μg/mL): 0.27 log-fold
log-fold changes in CFU ([4]; 72 h, 128 μg/mL): −0.94 log-fold
log-fold changes in CFU ([5]; 24 h, 2 μg/mL): 0.21 log-fold
log-fold changes in CFU ([5]; 24 h, 8 μg/mL): −0.79 log-fold
log-fold changes in CFU ([5]; 24 h, 32 μg/mL): −0.89 log-fold
log-fold changes in CFU ([5]; 24 h, 128 μg/mL): −0.95 log-fold
log-fold changes in CFU ([5]; 48 h, 2 μg/mL): 1.89 log-fold
log-fold changes in CFU ([5]; 48 h, 8 μg/mL): −0.64 log-fold
log-fold changes in CFU ([5]; 48 h, 32 μg/mL): −2.48 log-fold
log-fold changes in CFU ([5]; 48 h, 128 μg/mL): −2.65 log-fold
log-fold changes in CFU ([5]; 72 h, 2 μg/mL): 2.00 log-fold
log-fold changes in CFU ([5]; 72 h, 8 μg/mL): −0.63 log-fold
log-fold changes in CFU ([5]; 72 h, 32 μg/mL): −2.78 log-fold
log-fold changes in CFU ([5]; 72 h, 128 μg/mL): −2.95 log-fold

C[C@@H](c1ncncc1F)[C@](O)(Cn1cncn1)c1ccc(F)cc1F [Voriconazole]
Susceptibility (CLSI) ([1]; C. albicans R357): R
MIC [1]: > 64 µg/mL
